These results are taken from patent US5686454A, “Camphorcarbonyl” (Merck & Co., Inc., priority 1996, dated 1997).

SMILES strings stand for the structures.

For the first experiment, the target named is T1, uterine OT receptors (Rattus norvegicus, UniProt P70536).
T1 construct: crude membrane preparation of uteri; from tissue; host or cells: uterus of DES-treated rats, crude membranes
T1 sequence (P70536 1-388): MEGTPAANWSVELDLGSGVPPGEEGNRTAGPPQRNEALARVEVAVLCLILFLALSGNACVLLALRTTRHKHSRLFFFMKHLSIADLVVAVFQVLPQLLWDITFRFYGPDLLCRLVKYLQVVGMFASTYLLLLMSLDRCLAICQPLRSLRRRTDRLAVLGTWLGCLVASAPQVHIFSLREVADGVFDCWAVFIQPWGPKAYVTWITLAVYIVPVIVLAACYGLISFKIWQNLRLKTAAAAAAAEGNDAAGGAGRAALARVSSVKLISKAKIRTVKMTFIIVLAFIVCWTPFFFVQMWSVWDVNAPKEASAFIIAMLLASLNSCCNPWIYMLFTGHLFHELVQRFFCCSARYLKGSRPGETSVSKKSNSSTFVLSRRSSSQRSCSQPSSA
The experiment can be described thus: Radioligand binding: competition of [^3 H]oxytocin binding to rat uterine membranes. The conditions noted are these: 1 nM [^3 H]OT, rat uterus membranes, 60 minutes, 22° C., pH 7.4; read-out: IC50. An excerpt:
RADIOGLIGAND BINDING ASSAYS
The high affinity binding of [^3 H]
`Cc1ccccc1N1CCN(S(=O)(=O)CC23CCC(CC2N(C)C(=O)OCc2ccccc2)C3(C)C)CC1` (stereo not drawn) [Example 76, 1-((7,7-Dimethyl-2-endo-methyl(benzyloxy-carbonyl)amino-bicyclo(2.2.1)-heptan-1-yl)methanesulfonyl)4-(2-methylphenyl)piperazine]: the IC50 (usually the point on the concentration scale where inhibition reaches its midpoint) amounted to 6.3 nM.
Turning to `Cc1ccccc1N1CCN(S(=O)(=O)CC23CCC(CC2N(C)C(=O)[C@@H](N)CCS(C)(=O)=O)C3(C)C)CC1` (stereo partly drawn) [Example 77, 1-((7,7-dimethyl-2-endo-methyl(2S-amino-4-(methylsulfonyl)butanoyl)amino-bicyclo(2.2.1)heptan-1-yl)methanesulfonyl)-4-(2-methylphenyl)-piperazine], the IC50 is 9.2 nM.
The same measure, in the same setting: under `Cc1ccccc1N1CCN(S(=O)(=O)CC23CCC(CC2N(C)C(=O)[C@H](CCS(C)(=O)=O)N(C)C)C3(C)C)CC1` (stereo partly drawn) [Example 78, 1-((7,7-Dimethyl-2-endo-methyl(2S-dimethylamino-4-(methylsulfonyl)butanoyl)amino-bicyclo(2.2.1)heptan-1-yl)methanesulfonyl)-4-(2-methylphenyl)-piperazine] stands 110 nM.
Same read-out and setting: to `Cc1ccccc1N1CCN(S(=O)(=O)CC23CCC(CC2NC(=O)Cc2c[nH]cn2)C3(C)C)CC1` (stereo not shown) [Example 79] belongs 26 nM; to `Cc1ccccc1N1CCN(S(=O)(=O)C[C@]23CC[C@H](C[C@@H]2NC(=O)C(C)c2c[nH]cn2)C3(C)C)CC1` (stereo partly drawn) [Example 80, 1-((7,7-Dimethyl-2-endo-(2-(4-imidazolyl)propanoyl)-amino-bicyclo(2.2.1)heptan-1-yl)methanesulfonyl)-4-(2-methylphenyl)piperazine], 12 nM.
For the molecule `COC(=O)CCN1CCC[C@H]1C(=O)NCC(C)C1(O)CC2CCC1(CS(=O)(=O)N1CCN(c3ccccc3C)CC1)C2(C)C` (stereo partly drawn) [Example 81, 1-((7,7-Dimethyl-2-exo-hydroxy-2-endo-2-(1-(1--N -(methoxycarbonylethyl)prolyl)amino)propylbicyclo-(2.2.1)heptan-1-yl)methanesulfonyl)-4-(2-methyl-phenyl)piperazine], the IC50 stood at 20 nM.
Same read-out and setting: under `Cc1ccccc1N1CCN(S(=O)(=O)CC23CCC(CC2(O)C(C)CNC(=O)[C@@H]2CCCN2CCC(=O)O)C3(C)C)CC1` (stereo partly drawn) [Example 82, 1-((7,7-Dimethyl-2-exo-hydroxy-2-endo-2-(1-(1-N-(carboxyethyl)prolyl)amino)propyl-bicyclo(2.2.1)-heptan-1-yl)methanesulfonyl)-4-(2-methylphenyl)piperazine] stands 15 nM; under `Cc1ccccc1N1CCN(S(=O)(=O)CC23CCC(CC2(O)C(C)CNC(=O)C2CCCNC2)C3(C)C)CC1` (stereo not drawn) [Example 83, 1-((7,7-Dimethyl-2-exo-hydroxy-2-endo-2-(1-(3-piperidinylcarbonyl)amino)propyl-bicyclo(2.2.1)heptan-1-yl)methanesulfonyl)-4-(2-methylphenyl)piperazine], 30 nM; under `COC(=O)CCN1CCCC(C(=O)NCC(C)C2(O)CC3CCC2(CS(=O)(=O)N2CCN(c4ccccc4C)CC2)C3(C)C)C1` (stereo not shown) [Example 84], 25 nM.
`CCOC(=O)CN1CCCC(C(=O)NCC(C)C2(O)CC3CCC2(CS(=O)(=O)N2CCN(c4ccccc4C)CC2)C3(C)C)C1` (stereo not drawn) [Example 86, 1-((7,7-Dimethyl-2-exo-hydroxy-2-endo-2-(1-(3-(1-ethoxycarbonylmethyl)piperidinylcar-bonyl)amino)propyl-bicyclo(2.2.1)heptan-1-yl)methanesulfonyl)-4-(2-methylphenyl)piperazine]: the IC50 is 38 nM.
The same measure, in the same setting: under `CCOC(=O)CN1CCC[C@H]1C(=O)NCC(C)C1(O)CC2CCC1(CS(=O)(=O)N1CCN(c3ccccc3C)CC1)C2(C)C` (stereo partly drawn) [Example 88, 1-((7,7-Dimethyl-2-exo-hydroxy-2-endo-2-(1-(1-N -(ethoxycarboxymethyl)-prolyl)amino)propyl-bicyclo-(2.2.1)heptan-1-yl)methanesulfonyl)-4-(2-methylphenyl)piperazine] stands 28 nM; under `Cc1ccccc1N1CCN(S(=O)(=O)CC23CCC(CC2(O)C(C)CNC(=O)[C@@H]2CCCN2CC(=O)O)C3(C)C)CC1` (stereo partly shown) [Example 89], 14 nM; under `Cc1ccccc1N1CCN(S(=O)(=O)CC23CCC(CC2(O)C(C)CNC(=O)C2CCNCC2)C3(C)C)CC1` (stereo not shown) [Example 90], 30 nM.
In the case of `COC(=O)CCN1CCC(C(=O)NCC(C)C2(O)CC3CCC2(CS(=O)(=O)N2CCN(c4ccccc4C)CC2)C3(C)C)CC1` (stereo not drawn) [Example 91, 1-((7,7-Dimethyl-2-exo-hydroxy-2-endo-2-(1-(4-(1-methoxycarbonylethyl)-piperidinylcarbonyl)-amino)propylbicyclo(2.2.1)heptan-1-yl)methane-sulfonyl)-4-(2-methylphenyl)piperazine], the IC50 was 54 nM.

The experiment is the same for the next values; noted with them: read-out: % inhibition at 100 nM.
In the case of `Cc1ccccc1N1CCN(S(=O)(=O)CC23CCC(CC2(O)C(C)CNC(=O)C2CCCN(CCC(=O)O)C2)C3(C)C)CC1` (stereo not shown) [Example 85], the inhibition – broadly, the relative decrease from the control value, in per cent – at 0.1 µM was found to be 66%.
On the same count and under the same terms, to `Cc1ccccc1N1CCN(S(=O)(=O)CC23CCC(CC2(O)C(C)CNC(=O)C2CCN(CCC(=O)O)CC2)C3(C)C)CC1` (stereo not drawn) [Example 92, 1-((7,7-Dimethyl-2-exo-hydroxy-2-endo-2-(1-(4-(1-carboxyethyl)piperidinylcarbonyl)amino)propyl-bicyclo-(2.2.1)heptan-1-yl)methanesulfonyl)-4-(2-methylphenyl)piperazine] belongs 66%.

Still in this experiment, the particulars now being: read-out: % inhibition at 110 nM.
Regarding `Cc1ccccc1N1CCN(S(=O)(=O)CC23CCC(CC2(O)C(C)CNC(=O)C2CCCN(CC(=O)O)C2)C3(C)C)CC1` (stereo not drawn) [Example 87, 1-((7,7-Dimethyl-2-exo-hydroxy-2-endo-2-(1-(3-(1-carboxymethyl)piperidinylcarbonyl)amino)-propylbicyclo(2.2.1)heptan-1-yl)methanesulfonyl)-4-(2-methylphenyl)piperazine], the inhibition at […] was determined as 66%.

The experiment is the same for the next values; noted with them: read-out: % inhibition at 1000 nM.
In the case of `Cc1ccccc1N1CCN(S(=O)(=O)CC23CCC(CC2NC(=O)[C@H](CCS(C)(=O)=O)N(C)C)C3(C)C)CC1` (stereo partly drawn) [Example 74, 1-((7,7-Dimethyl-2-endo-(2S-(dimethylamino)-4-(methylsulfonyl)butyramido)-bicyclo(2.2.1)heptan-1-yl)methanesulfonyl)-4-(2-methylphenyl)piperazine], the inhibition at 1 µM turned out to be 54%.
The same measure, in the same setting: under `Cc1ccccc1N1CCN(S(=O)(=O)CC23CCC(CC2NC(=O)OCc2ccccc2)C3(C)C)CC1` (stereo not drawn) [Example 75, 1-((7,7-Dimethyl-2-endo-benzyloxycarbonylamino-bicyclo(2.2.1)heptan-1-yl)methanesulfonyl)-4-(2-methyl-phenyl)-piperazine] stands 35%.
